Key:
Assay type in all cases: in vivo
ZEAMX (Zea mays) = assay: Drought stress test on crop plants in greenhouse, spray application, efficacy vs untreated stressed control (ZEAMX); settings: dosage 250 g/ha, efficacy = percentage reduction in the intensity of damage vs untreated stressed control, mean of three results
Procedure: (§1) Seeds of monocotyledonous and dicotyledonous crop plants were placed in sandy loam in wood-fiber pots, covered with soil and cultivated in a greenhouse under good growth conditions. The test plants were treated at the early leaf stage (BBCH10 BBCH13). To ensure uniform water supply before commencement of stress, the potted plants were supplied with the maximum amount of water immediately beforehand by dam irrigation and, after application, transferred in plastic inserts in order to prevent subsequent, excessively rapid drying. The inventive compounds, formulated in the form of wettable powders (WP), wettable granules (WG), suspension concentrates (SC) or emulsion concentrates (EC), were sprayed onto the green parts of the plants as an aqueous suspension at an equivalent water application rate of […] with addition of 0.2% wetting agent (agrotin). Substance application is followed immediately by stress treatment of the plants (cold or drought stress). For cold stress treatment, the plants were kept under the following controlled conditions: […]
(§2) After the recovery phase had ended, the intensities of damage were rated in visual comparison to untreated, unstressed controls of the same age (in the case of drought stress) or the same growth stage (in the case of cold stress). The intensity of damage was first assessed as a percentage (100%=plants have died, 0%=like control plants). […]

[1] = test system: TRZAS (Triticum aestivum); assay: Drought stress test on crop plants in greenhouse, spray application, efficacy vs untreated stressed control (TRZAS); settings: dosage 25 g/ha, efficacy = percentage reduction in the intensity of damage vs untreated stressed control, mean of three results
Procedure: as §1, §2

BRSNS (Brassica napus) = assay: Drought stress test on crop plants in greenhouse, spray application, efficacy vs untreated stressed control (BRSNS); settings: dosage 250 g/ha, mean of three results
Procedure: as §1, §2

COC(=O)C1(NS(=O)(=O)c2ccc(OC)cc2)CCC(OC)CC1 (stereo not drawn) [I.37-87, Methyl 4-methoxy-1-{[(4-methoxyphenyl)sulfonyl]amino}-cyclohexanecarboxylate]
>5%: EF (ZEAMX) (ZEAMX (Zea mays)) | Efficacy (TRZAS) [1] | EF (BRSNS): Efficacy = percentage reduction in the intensity of damage (BRSNS (Brassica napus))

— patent publication US20140038822A1, “USE OF SUBSTITUTED SPIROCYCLIC SULFONAMIDOCARBOXYLIC ACIDS, CARBOXYLIC ESTERS THEREOF, CARBOXAMIDES THEREOF AND CARBONITRILES THEREOF OR SALTS THEREOF FOR ENHANCEMENT OF STRESS TOLERANCE IN PLANTS” (BAYER INTELLECTUAL PROPERTY GMBH, priority 2010, published 2014)
